Measured values: patent US12599657B2 (priority 2020, dated 2026)
Like-named read-outs stand apart in the source and are kept apart here.

Tests used:
E. acervulina [1] = details: Third Study; Day 26; 0 to 4 score; Salinomycin 60 g/ton No Vacc; Disclosed compound 1.0/1.0/0.5 lb/ton with Vacc
E. tenella [2] = details: First Study; DOT 26; Johnson and Reid 0 to 4 score; Salinomycin 60 gms/ton No Vaccine; Cocci Vaccine alone
E. maxima [3] = details: First Study; feces on DOT 26; Salinomycin 60 gms/ton No Vaccine; Cocci Vaccine alone
[4] = tested on: E. acervulina, E. maxima, and E. tenella; assay: First Study: total oocysts per gram of feces; assay type: in vivo, broiler; details: feces on DOT 26, Salinomycin 60 gms/ton No Vaccine, Cocci Vaccine alone
E. acervulina [5] = details: First Study; feces on DOT 26; Salinomycin 60 gms/ton No Vaccine; Cocci Vaccine alone
[6] = tested on: E. acervuline, E. maxima, and E. tenella; assay: Third Study: broiler performance (feed intake, FCR, weight gain, mortality) under coccidia challenge; assay type: in vivo, male broiler chicks; details: Day 0 to 41, challenge day 21, Salinomycin 60 g/ton No Vacc, Disclosed compound 1.0/1.0/0.5 lb/ton with Vacc
[7] = tested on: E. acervuline, E. maxima, and E. tenella; assay: as above; assay type: in vivo, male broiler chicks; details: Disclosed compound 1.0/1.0/0.5 lb/ton with Vacc
Experimental: (§1) Testing in all three studies set forth below was undertaken using a high oocyst dose vaccine, Coccivac-B52 (trademark, Intervet Inc.), a product sold by Merck Animal Health. According to the manufacturer, Coccivac-B52 contains E. acervulina, E. maxima, E. mivati, and E. tenella. The vaccine was mixed with water at a dosage of 240 ml of water per 1,000 doses. The vaccine-water combination was placed in a sealed vaccine container and mixed by stirring and inversion of the container. The mixed vaccine-water combination was sprayed onto each chick when one day old in a conventional spray cabinet. It was estimated that each chick ingested an equal number of droplets so as to result in the ingestion of about 240 μL dose per chick.
Rations consisted of non-medicated commercial-type broiler starter, grower, and finisher diets compounded according to NRC guidelines and contain feedstuffs commonly used in the United States. Day-of-hatch male broiler chicks were utilized in the study. Rations were fed ad libitum from date of chick arrival as follows: Starter—day 0 until day 14, grower day 14 to day 28, and finisher from day 28 to day 42 (the end date of the study). Coccidia vaccination for treatments 4 and 5 only.
One thousand five hundred birds (1,500) were randomly assigned to 5 treatment groups with 12 replicate pens per treatment and 25 birds per pen. The study began when birds were placed (day-of-hatch; DAY 0), at which time birds were allocated to experimental pens. On day 0, group body weights were recorded by pen. No birds were replaced during the course of the study.
All birds were weighed by pen on days 0, 14, 28, and 42. Feed added to each pen's feeder was weighed at the beginning of each formulation period on day 0 (starter), day 14 (grower), and day 28 (finisher). Feed was distributed as needed to feeders from pre-weighed bags assigned to each pen throughout each period. Feed remaining in feeders was weighed and disposed of on days 14, 28, and 42. The trial was terminated on day 42.

E. acervulina [8] = details: Third Study; feces Day 26; Salinomycin 60 g/ton No Vacc; Disclosed compound 1.0/1.0/0.5 lb/ton with Vacc
[9] = tested on: E. acervulina, E. maxima, and E. tenella; assay: Third Study: average coccidia lesion score; assay type: in vivo, male broiler chicks; details: Day 26, 0 to 4 score, Salinomycin 60 g/ton No Vacc, Disclosed compound 1.0/1.0/0.5 lb/ton with Vacc
E. acervulina [10] = details: First Study; DOT 26; Johnson and Reid 0 to 4 score; Salinomycin 60 gms/ton No Vaccine; Cocci Vaccine alone
[11] = tested on: E. acervulina, E. maxima, and E. tenella; assay: Third Study: total oocysts per gram of feces; assay type: in vivo, male broiler chicks
E. tenella [12] = details: First Study; feces on DOT 26; Salinomycin 60 gms/ton No Vaccine; Cocci Vaccine alone
E. maxima [13] = details: Third Study; Day 26; 0 to 4 score; Salinomycin 60 g/ton No Vacc; Disclosed compound 1.0/1.0/0.5 lb/ton with Vacc
E. tenella [14] = details: Third Study; feces Day 26; Salinomycin 60 g/ton No Vacc; Disclosed compound 1.0/1.0/0.5 lb/ton with Vacc
E. maxima [15] = details: First Study; DOT 26; Johnson and Reid 0 to 4 score; Salinomycin 60 gms/ton No Vaccine; Cocci Vaccine alone
E. maxima [16] = details: Third Study; feces Day 26; Salinomycin 60 g/ton No Vacc; Disclosed compound 1.0/1.0/0.5 lb/ton with Vacc
[17] = tested on: E. acervulina, E. maxima, and E. tenella; assay: First Study: average coccidia lesion score; assay type: in vivo, broiler; details: DOT 26, Johnson and Reid 0 to 4 score, Salinomycin 60 gms/ton No Vaccine, Cocci Vaccine alone
E. tenella [18] = details: Third Study; Day 26; 0 to 4 score; Salinomycin 60 g/ton No Vacc; Disclosed compound 1.0/1.0/0.5 lb/ton with Vacc
[19] = tested on: E. acervulina, E. maxima, and E. tenella; assay: First Study: broiler performance (feed intake, FCR, weight gain, mortality) under coccidia challenge; assay type: in vivo; details: Cocci Vaccine alone
Experimental: as §1
The rations consisted of non-medicated commercial-type broiler starter, grower, and finisher diets compounded according to NRC guidelines and contained feedstuffs commonly used in the United States. As a common regime rations for some but not necessarily all studies were fed ad libitum from date of chick arrival as follows: Starter—DOT 0 until DOT 14, grower DOT 14 to DOT 28, and finisher from DOT 28 to DOT 42 (study termination).
Diets were fed as crumbles in starter and pellets in grower and finisher. Experimental treatment feeds were prepared from a basal feed formulation. Quantities of all basal feed and test articles included in treatment group batches were documented and included with source data files. Treatment feeds were mixed prior to pelleting to assure uniform distribution of respective test articles.
Fifteen hundred birds (1,500) were assigned to six (6) treatment groups with ten (10) replicate pens per treatment and 25 birds per pen. The study began when birds were placed (day-of-hatch; DOT 0), at which time birds were allocated to experimental pens. Only healthy birds were selected. On DOT 0, group body weights were recorded by pen. No birds were replaced during the course of the study.
Birds received treatment-appropriate feed from day 0 to day 42. On day 14, remaining starter feed was removed, weighed, and replaced with grower feed to day 28. On day 28, the remaining grower feed was removed, weighed back, and replaced with finisher feed to day 42.
On Day 42, the trial was terminated.

[20] = Day 0 to 14, challenge day 21, Salinomycin 60 g/ton No Vacc
[21] = Day 0 to 28, challenge day 21, Salinomycin 60 g/ton No Vacc
[22] = Day 0 to 14, cocci challenge Day 20, Salinomycin 60 gms/ton No Vaccine
[23] = Day 0 to 28, cocci challenge Day 20, Salinomycin 60 gms/ton No Vaccine
[24] = Day 0 to 42, cocci challenge Day 20, Salinomycin 60 gms/ton No Vaccine

For `CC[C@@H](C(=O)[C@@H](C)[C@@H](O)[C@H](C)[C@@H]1O[C@@H]([C@@H](CC)C(=O)O)CC[C@@H]1C)[C@H]1O[C@]2(C=C[C@@H](O)[C@]3(CC[C@@](C)([C@H]4CC[C@](O)(CC)[C@H](C)O4)O3)O2)[C@H](C)C[C@@H]1C` [Salinomycin], the “Mean Coccidia Lesion Score, E. acervulina” value (E. acervulina [1]) was 2.31A, the “Mean Coccidia Lesion Score, E. tenella” value (E. tenella [2]) was 2.17AB and the “OPG M” value (E. maxima [3]) was 2615A oocysts per gram. The “Total OPG” value [4] was 52866AB oocysts per gram, the “OPG A” value (E. acervulina [5]) was 49418AB oocysts per gram and the “Adjusted FCR (FCR adjusted for mortality)” value [6] was 1.60AB. The “Cocci Percent Mortality” value [6] was 0.00A Percent, the “Feed Intake” value [6] was 92.63B and the “Non-Adjusted FCR” value [6] was 1.61BC. For the same compound, the “Percent Mortality” value [6] was 1.33B Percent, the “Weight Gain” value [6] was 2.49BC kg and the “Percent Mortality” value ([6]; listed as salinomycin) was 1.33%. For the same compound, the “Adjusted FCR (FCR adjusted for mortality)” value [7, 20] was 1.41A, the “Feed Intake” value [7, 20] was 12.09A and the “Non-Adjusted FCR” value [7, 20] was 1.42A. The “Weight Gain” value [7, 20] was 0.34B kg, the “Adjusted FCR (FCR adjusted for mortality)” value [7, 21] was 1.50AB and the “Feed Intake” value [7, 21] was 44.75B. For the same compound, the “Non-Adjusted FCR” value [7, 21] was 1.51B, the “Weight Gain” value [7, 21] was 1.20B kg and the “OPG A” value (E. acervulina [8]) was 23,995A oocysts per gram. For the same compound, the “Mean Coccidia Lesion Score, Average” value [9] was 2.04AB, the “Mean Coccidia Lesion Score, E. acervulina” value (E. acervulina [10]) was 1.80BC and the “count of oocysts among groups” value ([11]; day of feces collection (day 27)) was “highest count of oocysts”. For the same compound, the “Total OPG” value ([11]; feces Day 26, Salinomycin 60 g/ton No Vacc, Disclosed compound 1.0/1.0/0.5 lb/ton with Vacc) was 55,117A oocysts per gram, the “OPG T” value (E. tenella [12]) was 834A oocysts per gram and the “Mean Coccidia Lesion Score, E. maxima” value (E. maxima [13]) was 1.78AB. The “OPG T” value (E. tenella [14]) was 21,455A oocysts per gram, the “Mean Coccidia Lesion Score, E. maxima” value (E. maxima [15]) was 1.93A and the “OPG M” value (E. maxima [16]) was 9,666A oocysts per gram. The “Mean Coccidia Lesion Score, Average” value [17] was 1.97BC, the “Mean Coccidia Lesion Score, E. tenella” value (E. tenella [18]) was 2.03AB and the “Adjusted FCR (feed conversion ratio adjusted for mortality)” value [19, 22] was 1.58A. For the same compound, the “Feed Intake” value [19, 22] was 11.48A, the “Non-Adjusted FCR” value [19, 22] was 1.60A and the “Weight Gain” value [19, 22] was 0.31B kg. The “Adjusted FCR (feed conversion ratio adjusted for mortality)” value [19, 23] was 1.64B, the “Feed Intake” value [19, 23] was 38.69C and the “Non-Adjusted FCR” value [19, 23] was 1.78AB. For the same compound, the “Weight Gain” value [19, 23] was 1.01B kg, the “Adjusted FCR (feed conversion ratio adjusted for mortality)” value [19, 24] was 1.67B and the “Cocci Percent Mortality” value [19, 24] was 8.40A Percent. The “Feed Intake” value [19, 24] was 80.16B, the “Non-Adjusted FCR” value [19, 24] was 1.81AB and the “Percent Mortality” value [19, 24] was 18.00A Percent. The “Weight Gain” value [19, 24] was 2.39AB kg.
